In PubChem BioAssay (NCI):
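Values below derive from 48-hour exposures of cells grown in 96-well plates, with endpoints linearly interpolated between the two concentrations bracketing the appropriate inhibition level. TGI denotes the concentration required for complete inhibition of growth.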

Assays:
Assay in all cases: NCI tumour cell line growth inhibition, 48 h
[1] = test system: 786-0 renal
[2] = test system: COLO 205 colon
[3] = test system: HOP-92 NSCLC
[4] = test system: K-562 leukemia
[5] = test system: MOLT-4 leukemia
[6] = test system: OVCAR-4 ovarian
[7] = test system: SK-MEL-28 melanoma
[8] = test system: SW-620 colon
[9] = test system: U251 CNS
[10] = test system: UACC-62 melanoma

Structure (SMILES) | TGI [1] | TGI [2] | TGI [3] | TGI [4] | TGI [5] | TGI [6] | TGI [7] | TGI [8] | TGI [9] | TGI [10]
O=C1C(C(O)(C(F)(F)Cl)C(F)(F)Cl)CCC1C(O)(C(F)(F)Cl)C(F)(F)Cl (stereo not given) | > 10 µM | > 10 µM | 5.39 µM | > 10 µM | > 10 µM | > 10 µM | > 10 µM | > 10 µM | > 10 µM | > 10 µM
Cc1ccc(-c2sc(-c3ccc(C)cc3)c3c2C2CCC3C2)cc1 | > 50 µM | > 50 µM | > 50 µM | > 50 µM | > 50 µM | > 50 µM | > 50 µM | > 50 µM | > 50 µM | > 50 µM
CCOC(=O)c1c(O)[nH]c(=O)c(CC)c1C | > 100 µM | > 100 µM | > 100 µM | > 100 µM | > 100 µM | > 100 µM | > 100 µM | > 100 µM | > 100 µM | > 100 µM
CCOc1ccc(N2C(=O)C3c4[nH]c5ccccc5c4C4CCC(C(C)(C)C)CC4C3C2=O)cc1 (stereo not given) | > 100 µM | > 100 µM | > 100 µM | > 100 µM | > 100 µM | > 100 µM | > 100 µM | > 100 µM | > 100 µM | > 100 µM
CCOC(=O)N1CCN(Cc2cc(=O)n3cc(C)ccc3n2)CC1 | > 100 µM | > 100 µM | > 100 µM | > 100 µM | > 100 µM | > 100 µM | > 100 µM | > 100 µM | > 100 µM | > 100 µM
O=[N+]([O-])c1ccc(Cl)cc1-n1nc(-c2ccccc2)cc1-c1ccccc1 | > 100 µM | > 100 µM | > 100 µM | > 100 µM | > 100 µM | > 100 µM | > 100 µM | > 100 µM | > 100 µM | > 100 µM
COC(=O)[C@@H]1C=C[C@@H](C#N)n2c(=O)n(-c3ccccc3)c(=O)n21 | 84.7 µM | > 100 µM | > 100 µM | > 100 µM | 67.1 µM | > 100 µM | > 100 µM | > 100 µM | > 100 µM | > 100 µM
Cc1cn(CC2=NCCN2)c(=O)[nH]c1=O | > 100 µM | > 100 µM | > 100 µM | > 100 µM | > 100 µM | > 100 µM | > 100 µM | > 100 µM | > 100 µM | > 100 µM
N=C(/C=C/c1ccc(-c2cn3cc(/C=C/C(=N)N4CCCC4)ccc3n2)cc1)N1CCCC1 | > 100 µM | > 100 µM | > 100 µM | > 100 µM | > 100 µM | > 100 µM | > 100 µM | > 100 µM | > 100 µM | > 100 µM
Cc1c2c(c(C)n1-c1ccccc1)C(=O)N(CCSC(=N)N)C2=O | > 100 µM | > 100 µM | > 100 µM | > 100 µM | > 100 µM | > 100 µM | > 100 µM | > 100 µM | > 100 µM | > 100 µM
Cc1nc(-c2ccccc2)c(C)n2c1nc1ccccc12 | > 100 µM | > 100 µM | 47.9 µM | > 100 µM | > 100 µM | > 100 µM | > 100 µM | > 100 µM | > 100 µM | 41 µM
COC(=O)C1Cc2c([nH]c3ccccc23)C(c2cccc(O)c2)N1 (stereo not given) | > 100 µM | 90.3 µM | 79.9 µM | > 100 µM | > 100 µM | > 100 µM | 73.4 µM | 60.8 µM | > 100 µM | > 100 µM
Cc1ccc(/C=C2\CN(C)CC3C(c4ccc(C)cc4)=C(C#N)C(=O)NC23)cc1 (stereo not given) | > 50 µM | > 50 µM | > 50 µM | > 50 µM | > 50 µM | > 50 µM | > 50 µM | > 50 µM | > 50 µM | > 50 µM
CC(C)Nc1[nH]c(C(=O)c2ccccc2)c(N)c1C(=S)Nc1ccccc1 | > 100 µM | 97.5 µM | > 100 µM | > 100 µM | > 100 µM | > 100 µM | 35.1 µM | > 100 µM | > 100 µM | 35.2 µM
O=C(c1ccc(Cl)cc1Cl)N(Cc1cccnc1)C(=S)N(Cc1cccnc1)C(=O)c1ccc(Cl)cc1Cl | 5.34 µM | 4.09 µM | 12 µM | > 100 µM | > 100 µM | 7.99 µM | 33.7 µM | 80.5 µM | 9.88 µM | 23.8 µM
N#Cc1cccc(C2ON=C(c3ccc([N+](=O)[O-])cc3)N2C23CC4CC(CC(C4)C2)C3)c1 (stereo not given) | > 100 µM | > 100 µM | > 100 µM | > 100 µM | > 100 µM | 76.8 µM | > 100 µM | > 100 µM | > 100 µM | > 100 µM
CCN(CC)CCNC(=O)c1ccc([N+](=O)[O-])cc1OC | > 100 µM | > 100 µM | > 100 µM | > 100 µM | > 100 µM | > 100 µM | > 100 µM | > 100 µM | > 100 µM | > 100 µM
COC(=O)c1ccc2c(c1)CC1(C2)Cc2cc3c(c(C(=O)OC)c2C1)CCCC3 (stereo not given) | > 100 µM | > 100 µM | > 100 µM | > 100 µM | > 100 µM | > 100 µM | > 100 µM | > 100 µM | > 100 µM | > 100 µM

Structure (SMILES) | TGI [1] | TGI [2] | TGI [3] | TGI [4] | TGI [5] | TGI [6] | TGI [7] | TGI [8] | TGI [9] | TGI [10]
C[C@H](CCC1=NCCN1)[C@H]1CC[C@H]2[C@@H]3[C@H](O)C[C@@H]4C[C@H](O)CC[C@]4(C)[C@H]3CC[C@]12C | 27.7 µM | 21.1 µM | 21.8 µM | 21.6 µM | 27.3 µM | 28.1 µM | 27.2 µM | 30.1 µM | 26.5 µM | 23.5 µM
CCOc1cc(/C=N\N(C)C)cc(/C=N\N(C)C)c1O | > 100 µM | 34.3 µM | 49.7 µM | > 100 µM | > 100 µM | > 100 µM | > 100 µM | > 100 µM | 89.9 µM | > 100 µM
CN(C)CCN1C(=O)CC[C@@]2(C)C1=CC[C@@H]1[C@@H]2CC[C@@]2(C)[C@H]1CC[C@]2(C)O | > 100 µM | > 100 µM | > 100 µM | > 100 µM | > 100 µM | > 100 µM | > 100 µM | > 100 µM | > 100 µM | > 100 µM
N#C/C(=C1\N=C(c2ccccc2O)Oc2ccccc21)c1ccc([N+](=O)[O-])cc1 | > 100 µM | > 100 µM | > 100 µM | > 100 µM | > 100 µM | > 100 µM | > 100 µM | > 100 µM | > 100 µM | > 100 µM
O=C(NCCN1C(=O)CN=C(c2ccc(Cl)cc2)c2cc(Cl)ccc21)OCc1ccccc1 | 28.9 µM | 50.4 µM | 31.2 µM | 31.1 µM | > 100 µM | 22.6 µM | > 100 µM | > 100 µM | 30.1 µM | 38.7 µM
O=c1[nH]c2cc(C(F)(F)F)ccc2nc1Cc1ccccc1 | > 100 µM | > 100 µM | > 100 µM | > 100 µM | > 100 µM | > 100 µM | > 100 µM | > 100 µM | > 100 µM | > 100 µM
COc1cc2c(cc1OC)C1Cc3ccccc3CCN1CC2 (stereo not given) | > 100 µM | > 100 µM | > 100 µM | > 100 µM | > 100 µM | > 100 µM | > 100 µM | > 100 µM | > 100 µM | > 100 µM
CC(C)(C)c1cc(C(=O)/C=C/c2ccc(O)c(O)c2O)cc(C(C)(C)C)c1O | 28.8 µM | 26.3 µM | > 42.6 µM | 21.7 µM | 28.9 µM | 26.5 µM | 28.1 µM | 17.9 µM | 12.3 µM | 18.8 µM
CC12CC3CC/C(=N\O)C(C1)C3(N1CCOCC1)C/C2=N/O (stereo not given) | > 100 µM | > 100 µM | > 100 µM | > 100 µM | > 100 µM | > 100 µM | > 100 µM | > 100 µM | > 100 µM | > 100 µM
CC(=O)Nc1ccc(Nc2cc(=O)n(C)c(=O)[nH]2)cc1 | > 100 µM | > 100 µM | > 100 µM | > 100 µM | > 100 µM | > 100 µM | > 100 µM | > 100 µM | > 100 µM | > 100 µM
CC[C@@H]1CN2CCC1C[C@@H]2C(O)c1ccnc2ccc(OCCN3CCN(CCOc4ccc5nccc(C(O)[C@@H]6C[C@@H]7CCN6C[C@@H]7CC)c5c4)CC3)cc12 (stereo not given in full) | 30.2 µM | 33.1 µM | 22.8 µM | 6.2 µM | 21.7 µM | 40.8 µM | 35.5 µM | 55.6 µM | 33.1 µM | 30.5 µM
Cc1cccc(/C=N/NC(=S)NCc2ccccn2)n1 | > 100 µM | > 100 µM | 98.5 µM | > 100 µM | > 100 µM | > 100 µM | > 100 µM | > 100 µM | > 100 µM | 54.3 µM
CCOC(=O)c1cccc(NC(=O)CBr)c1 | 0.494 µM | 3.29 µM | 4.14 µM | 1.63 µM | 1.29 µM | 3.73 µM | 7.75 µM | 1.66 µM | 1.89 µM | 2.92 µM
Cc1cc2nc(N3C(=O)/C(=C/c4cccc([N+](=O)[O-])c4)N=C3c3ccccc3)sc2cc1C | > 100 µM | > 100 µM | 58.2 µM | > 100 µM | 32.4 µM | 96.2 µM | > 100 µM | > 100 µM | 58 µM | > 100 µM
COc1ncnc2c1cnn2Cc1cn(COCC(O)CO)nn1 (stereo not given) | > 100 µM | > 100 µM | > 100 µM | > 100 µM | > 100 µM | > 100 µM | > 100 µM | > 100 µM | > 100 µM | > 100 µM
O=C(O)C(CS)NCc1c2ccccc2[n+]([O-])c2ccccc12 (stereo not given) | > 100 µM | > 100 µM | 46.5 µM | > 100 µM | 78.9 µM | 86.6 µM | > 100 µM | > 100 µM | > 100 µM | > 100 µM
COc1cc(N(CCC#N)CCC#N)ccc1/C(N=Nc1ccc(C)cc1)=N/NC(=O)c1cc(Br)ccc1O | > 100 µM | 29.1 µM | 65.6 µM | > 100 µM | 37.3 µM | 63.1 µM | 85.2 µM | > 100 µM | > 100 µM | 45.1 µM
